The text below walks through data of US8580762B2, “Substituted purine and 7-deazapurine compounds” (Epizyme, Inc., priority 2010, dated 2013).

DOT1L(1-416), sequence (Q8TEK3 1-416): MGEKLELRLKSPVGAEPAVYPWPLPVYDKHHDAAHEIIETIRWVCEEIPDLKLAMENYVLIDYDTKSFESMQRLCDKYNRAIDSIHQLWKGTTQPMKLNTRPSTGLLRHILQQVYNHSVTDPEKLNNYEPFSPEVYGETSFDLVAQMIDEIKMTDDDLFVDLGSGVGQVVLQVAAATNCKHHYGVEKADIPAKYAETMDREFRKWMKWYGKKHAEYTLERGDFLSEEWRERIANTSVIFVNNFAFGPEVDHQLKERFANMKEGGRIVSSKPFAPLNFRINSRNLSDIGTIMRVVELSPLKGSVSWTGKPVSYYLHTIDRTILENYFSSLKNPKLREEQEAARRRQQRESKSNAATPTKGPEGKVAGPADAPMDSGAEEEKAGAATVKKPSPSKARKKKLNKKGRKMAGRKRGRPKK

One assay addresses DOT1L(1-416) (Homo sapiens, UniProt Q8TEK3). Nature of the assay: Determination of IC50: DOT1L(1-416) methyltransferase assay, 3H-SAM, oligonucleosome substrate, Flashplate. Type of assay: biochemical. The following applies: class symbols; read-out: DOT1L IC50. In outline:
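Compounds in 10-point 3-fold DMSO dilutions were tested in reactions started with substrate mix of 200 nM [3H]-SAM, 600 nM unlabeled SAM and 20 nM oligonucleosome. Reactions ran 120 min at room temperature and were quenched with 100 μM SAM. Labeled substrate was captured on streptavidin Flashplates and counted by scintillation to give IC50.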
Take `CC(C)N(C[C@H]1C[C@@H](n2ccc3c(N)ncnc32)[C@H](O)[C@@H]1O)C1CC(CCc2nc3cc(C(C)(C)C)ccc3[nH]2)C1` (stereo partly drawn) [Compound 19, (1R,2S,3R,5R)-3-(4-amino-7H-pyrrolo[2,3-d]pyrimidin-7-yl)-5-(((3-(2-(5-(tert-butyl)-1H-benzo[d]imidazol-2-yl)ethyl)cyclobutyl)(isopropyl)amino)methyl)cyclopentane-1,2-diol]: the IC50 was under 100 nM.

For the molecule `CC(C)N(C[C@H]1O[C@@H](n2cnc3c(N)ncnc32)[C@H](O)[C@@H]1O)[C@H]1C[C@@H](CCc2nc3cc(C4CC4)ccc3[nH]2)C1` [Compound 116, (2R,3R,4S,5R)-2-(6-amino-9H-purin-9-yl)-5-((((1r,3S)-3-(2-(5-cyclopropyl-1H-benzo[d]imidazol-2-yl)ethyl)cyclobutyl) (isopropyl)amino)methyl)tetrahydrofuran-3,4-diol], the IC50 was under 100 nM. Take `CN(C[C@@H]1C[C@@H](O)[C@H](n2ccc3c(N)ncnc32)C1)[C@H]1C[C@@H](CCc2nc3cc(Cl)c(C(F)(F)F)cc3[nH]2)C1` [Compound 81, (1R,2R,4S)-2-(4-amino-7H-pyrrolo[2,3-d]pyrimidin-7-yl)-4-((((1r,3R)-3-(2-(5-chloro-6-(trifluoromethyl)-1H-benzo[d]imidazol-2-yl)ethyl)cyclobutyl) (methyl)amino)methyl) cyclopentanol]: the IC50 fell in the range of 100 to 1000 nM. The same measure, in the same setting: next, `CC(C)N(C[C@H]1O[C@@H](n2cnc3c(N)ncnc32)[C@H](O)[C@@H]1O)[C@H]1C[C@@H](CCc2nc3cc(Cl)c(C(F)(F)F)cc3[nH]2)C1` [Compound 5]: under 100 nM; `CN(C[C@H]1C[C@@H](n2ccc3c(N)ncnc32)[C@H](O)[C@@H]1O)C1CC(CCc2nc3cc(C(F)(F)F)ccc3[nH]2)C1` (stereo partly drawn) [Compound 13, (1R,2S,3R,5R)-3-(4-amino-7H-pyrrolo[2,3-d]pyrimidin-7-yl)-5-((methyl(3-(2-(5-(trifluoromethyl)-1H-benzo[d]imidazol-2-yl)ethyl)cyclobutyl)amino)methyl)cyclopentane-1,2-diol]: under 100 nM. Still for that read-out and setting: in the case of `CC(C)N(C[C@H]1O[C@@H](n2cnc3c(N)ncnc32)[C@H](O)[C@@H]1O)[C@H]1C[C@@H](CCc2nc3cc(C(C)(C)C#N)ccc3[nH]2)C1` [Compound 128, 2-(2-(2-((1S,3r)-3-((((2R,3S,4R,5R)-5-(6-amino-9H-purin-9-yl)-3,4-dihydroxytetrahydro-furan-2-yl)methyl)(isopropyl)amino)cyclobutyl)ethyl)-1H-benzo[d]imidazol-5-yl)-2-methylpropanenitrile] it was under 100 nM; in that of `CC(C)N(CC1CC(Cc2nc3cc(C(C)(C)C)ccc3[nH]2)C1)C[C@H]1C[C@@H](n2ccc3c(N)ncnc32)[C@H](O)[C@@H]1O` (stereo partly drawn) [Compound 22, (1R,2S,3R,5R)-3-{4-amino-7H-pyrrolo[2,3-d]pyrimidin-7-yl}-5-{[({3-[(5-tert-butyl-1H-1,3-benzodiazol-2-yl)methyl]cyclobutyl}methyl)(propan-2-yl)amino]methyl}cyclopentane-1,2-diol], 100 to 1000 nM. On the same count and under the same terms, in the case of `CN(C[C@@H]1C[C@@H](O)[C@H](n2ccc3c(N)ncnc32)C1)C1CC(CCc2nc3cc(Cl)c(C(F)(F)F)cc3[nH]2)C1` (stereo partly drawn) [Compound 17, (1R,2R,4S)-2-(4-amino-7H-pyrrolo[2,3-d]pyrimidin-7-yl)-4-(((3-(2-(5-chloro-6-(trifluoromethyl)-1H-benzo[d]imidazol-2-yl)ethyl)cyclobutyl) (methyl)amino)methyl) cyclopentanol] it was 100 to 1000 nM; in that of `CCN(C[C@H]1C[C@@H](n2ccc3c(N)ncnc32)[C@H](O)[C@@H]1O)C1CC(CCc2nc3cc(C(C)(C)C)ccc3[nH]2)C1` (stereo partly drawn) [Compound 25, (1R,2S,3R,5R)-3-(4-amino-7H-pyrrolo[2,3-d]pyrimidin-7-yl)-5-(((3-(2-(5-(tert-butyl)-1H-benzo[d]imidazol-2-yl)ethyl)cyclobutyl)(ethyl)amino)methyl)cyclopentane-1,2-diol], under 100 nM.

Staying with this assay, now noted: read-out: DOT1L IC50.
For the molecule `CC(C)N(C[C@H]1O[C@@H](n2cnc3c(N)ncnc32)[C@H](O)[C@@H]1O)[C@H]1C[C@@H](CCc2nc3cc(Cl)c(C(F)(F)F)cc3[nH]2)C1` [Compound 5], the IC50 was 0.59 nM.
